Here are results for 3 compounds from PMC6151990, “Effects of P-Glycoprotein on the Transport of DL0410, a Potential Multifunctional Anti-Alzheimer Agent” (Molecules : A Journal of Synthetic Chemistry and Natural …, 2017).

Series [1] has as its target human P-gp membranes (Homo sapiens, UniProt P08183). Put plainly: P-gp ATPase activity (Pgp-Glo assay). The conditions noted are these: P-gp ATPase stimulation.
Series [2] can be described thus: Transcellular transport across MDCK-MDR1 cell monolayer. Type of series: in vitro ADME, Canine. The conditions noted are these: dog; MDCK-MDR1 monolayer, integrity control; read-out: permeability value.
Description: (§2) Caco-2, MDCK and MDCK-MDR1cells were cultured at seeding densities of 1 × 10^5, 2 × 10^5, 2 × 10^5 cells/cm^2, respectively, onto polycarbonate membrane transwell inserts in 12-well plates. Prior to performing the transport studies, we determined the values of Trans Epithelial Electric Resistance (TEER) and Papp values of fluorescein to ensure the integrity of the monolayers [16]. After seeding for 18 and 21 days, the cultural medium of transwell chambers was removed carefully and washed twice with HBSS (pH 7.4, 37 °C), and then pre-incubated for 30 min at 37 °C. The transwell chambers were incubated for 20 min at 37 °C. […] After incubation for 2 h, the liquor of each side was collected for determination.
(§3) To analyze DL0410 in HBSS buffer, 15 µL of IS working solution (phenacetin, 1 µg/mL) and 150 µL sample were mixed with 1000 µL ethyl acetate to extract the analytes, and then vortexed for 5 min. After centrifuging at 13,000 rpm for 10 min, the supernatant was added into another tube carefully and evaporated to dryness under a gentle flow of nitrogen gas. The residue was reconstituted in 60 µL acetonitrile–water (20:80, v/v, containing 0.5% formic acid). After centrifugation, the supernatant was used for analysis. The analytical column was Agilent Zorbax SD-C18 (100 mm × 2.1 mm, 3.5 µm; Agilent Technologies, Santa Clara, CA, USA). The mobile phase was made up of acetonitrile–water (0.5% formic acid) (20:80, v/v). Injection volume, flow rate, and column temperature were 20 µL, a 0.3 mL/min, and 35 °C, respectively. The mass spectrometer was operated in the positive scan mode. The conditions of ESI source were as follows: drying gas flow was set at 10 L/min, nebulizer pressure was 35.0 psig, capillary voltage was 3000 V, and drying gas temperature was 350 °C. The ESI was performed using nitrogen to assist nebulization.
(§4) The Papp values (cm/s) were computed according to the following equation [16], Papp=V/C0×1/S×dC/dt (V: volume of medium in the receiver chamber (mL); C0: initial concentration in the donor chamber (µM/mL), S: the surface area of monolayer (cm^2); dC/dt: variance rate in the receptor chamber of concentration with time (µM/mL/s)) The ER was calculated by the Papp value from BL to AP divided by Papp value from AP to BL. In MDCK-MDR1 and MDCK cell models, the NER was measured by comparing the ER values as follows [16]. (1) ER=Papp(B−A)/Papp(A−B) (2) NER=ERMDCK−MDR1/ERMDCK
The nature of series [3]: Transcellular transport across Caco-2 cell monolayer. Format: in vitro ADME. As to conditions: human. In general terms: Passage across Caco-2 layers is used to estimate intestinal permeability.
Description: as §2, §3, §4
Series [4] concerns Caco-2 cell monolayer. Described as above. Format: in vitro ADME. The conditions noted are these: human, Caco-2.
Description: as §2, §3, §4
Series [5] is described as follows: Transcellular transport across MDCK cell monolayer. Format: in vitro ADME, Canine. As to conditions: dog.
Description: as §2, §3, §4
The subject of series [6] is P-gp (MDR1). Put plainly: Transcellular transport across MDCK-MDR1 cell monolayer. Format: in vitro ADME, Canine. The conditions noted are these: dog, pH 7.4; MDCK-MDR1, DL0410 10 μM; read-out: ER.
Description: as §2, §3, §4
In series [7] the test system is MDCK-MDR1 cell monolayer. The description is as above. Type of series: in vitro ADME, Canine. As to conditions: ER MDCK-MDR1 / ER MDCK.
Description: as §2, §3, §4
Series [8] has as its system P-gp. Described as above. Type of series: in vitro ADME, Canine. As to conditions: dog, pH 7.4.
Description: as §2, §3, §4
Series [9] addresses T1, P-gp (Homo sapiens, UniProt P08183).
T1 construct: expressed in transfected cells; host or cells: MDCK-MDR1 (canine kidney MDCK cells transfected with the human MDR1 gene)
Put plainly: Effect on Rho123 transport (BL to AP) in MDCK-MDR1 cells. Format: cell-based. As to conditions: MDCK-MDR1, Rho123 10 µM, DL0410 50 µM, 2 h.

Series [10] relates to Caco-2 cells. Put plainly: CCK-8 cytotoxicity assay, Caco-2. Format: cell-based, human. The conditions noted are these: Caco-2, 100 µM, 12 h. The procedure: (§1) The cytotoxicity of DL0410 was determined by the CCK-8 assay. Caco-2 Cells, at a density of 1 × 10^5 cells/mL, were seeded in 96-well plates for culture. The seeding density of MDCK and MDCK-MDR1cells were 0.8 × 10^5 cells/mL. Two days after seeding, increasing concentrations (0.1, 1, 10, 100 µM) of DL0410 were added for treatment, and cytotoxicity was measured after 12 h by the CCK-8 assay.

Series [11] relates to MDCK cells. Briefly: CCK-8 cytotoxicity assay, MDCK. Type of series: cell-based, Canine. The conditions noted are these: 100 µM, 12 h. The procedure: as §1
In general terms: Tetrazolium assays rely on reduction of a dye to a coloured formazan, in cell work by metabolically active cells.

Series [12] has as its system MDCK-MDR1 cells. Briefly: CCK-8 cytotoxicity assay, MDCK-MDR1. Type of series: cell-based, Canine. The conditions noted are these: MDCK-MDR1, 100 µM, 12 h. The procedure: as §1

SMILES strings stand for the structures. Structures can show the parent of a compound that is named as a salt.

Chain of human P-gp membranes (P08183 whole entry): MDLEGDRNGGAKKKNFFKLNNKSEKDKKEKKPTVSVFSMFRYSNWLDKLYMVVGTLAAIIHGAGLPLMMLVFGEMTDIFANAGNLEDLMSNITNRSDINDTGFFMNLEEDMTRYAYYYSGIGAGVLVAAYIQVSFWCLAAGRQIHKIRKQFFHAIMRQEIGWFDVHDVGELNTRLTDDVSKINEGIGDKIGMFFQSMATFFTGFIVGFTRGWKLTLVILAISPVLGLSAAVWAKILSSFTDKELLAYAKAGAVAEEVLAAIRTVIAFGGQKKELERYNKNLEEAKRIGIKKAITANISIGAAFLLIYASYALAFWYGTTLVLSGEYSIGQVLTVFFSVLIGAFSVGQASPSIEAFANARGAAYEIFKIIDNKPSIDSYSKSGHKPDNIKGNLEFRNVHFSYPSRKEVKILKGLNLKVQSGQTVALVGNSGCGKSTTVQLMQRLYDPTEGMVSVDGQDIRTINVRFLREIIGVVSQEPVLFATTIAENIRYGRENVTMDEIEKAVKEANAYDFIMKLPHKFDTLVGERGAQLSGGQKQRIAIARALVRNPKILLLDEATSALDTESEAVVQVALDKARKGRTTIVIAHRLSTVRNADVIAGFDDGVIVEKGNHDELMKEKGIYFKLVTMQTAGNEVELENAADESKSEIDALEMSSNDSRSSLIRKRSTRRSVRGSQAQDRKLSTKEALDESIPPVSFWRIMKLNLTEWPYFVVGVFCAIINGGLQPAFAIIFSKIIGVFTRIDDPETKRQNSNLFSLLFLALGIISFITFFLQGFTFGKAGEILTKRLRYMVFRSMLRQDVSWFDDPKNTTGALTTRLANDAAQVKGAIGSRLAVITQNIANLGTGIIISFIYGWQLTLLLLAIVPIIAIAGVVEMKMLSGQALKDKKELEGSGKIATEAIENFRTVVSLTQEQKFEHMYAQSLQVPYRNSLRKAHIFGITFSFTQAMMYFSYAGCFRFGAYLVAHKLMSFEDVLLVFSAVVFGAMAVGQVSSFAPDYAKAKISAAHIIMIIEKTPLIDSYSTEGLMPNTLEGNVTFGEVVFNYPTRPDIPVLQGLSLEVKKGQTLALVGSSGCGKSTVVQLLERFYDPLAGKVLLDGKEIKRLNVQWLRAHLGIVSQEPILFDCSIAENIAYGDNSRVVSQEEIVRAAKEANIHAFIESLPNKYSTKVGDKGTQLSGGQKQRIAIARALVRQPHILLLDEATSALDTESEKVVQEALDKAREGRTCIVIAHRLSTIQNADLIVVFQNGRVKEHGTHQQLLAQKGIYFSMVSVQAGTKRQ
T1 sequence (P08183 whole entry): as above

For the compound `COc1ccc(CCN(C)CCCC(C#N)(c2ccc(OC)c(OC)c2)C(C)C)cc1OC` (stereo not shown) [Verapamil, reference compound], in series [1], the “concentration at which the activity of ATPase was saturated” value was determined as 100 µM.
With `O=C1OC2(c3ccc(O)cc3Oc3cc(O)ccc32)c2ccccc21` [fluorescein, reference compound], the Papp in series [2] worked out at 0.571 ×10⁻⁶ cm/s; in series [3] (Caco-2 monolayer, integrity control, read-out: apparent permeability (Papp)), 1.09 ×10⁻⁶ cm/s; in series [5] (MDCK monolayer, integrity control, read-out: permeability value) it was 0.702 ×10⁻⁶ cm/s. The compound further returned a penetration rate in series [4] of 0.10%.
As a reminder, the Papp A→B is the apparent permeability from the apical to the basolateral side of a cell layer. A low value points to poor permeation. By Papp B→A is commonly meant how fast a substance crosses the layer from the basolateral side. For `O=C(CCN1CCCCC1)c1ccc(-c2ccc(C(=O)CCN3CCCCC3)cc2)cc1` [DL0410, 1,1’-([1,1’-Biphenyl]-4,4’-diyl)bis(3-(piperidin-1-yl)propan-1-one)dihydrochloride], the efflux ratio at 2 h, 10 µM in [6] was found to be 14.9; in series [3] (pH 7.4, Caco-2, DL0410 10 μM, read-out: ER) it was 4.52; in series [5] (pH 7.4, MDCK, DL0410 10 μM, read-out: ER), 1.41. The NER in series [7] (DL0410 10 μM) was determined as 10.588; in [7] (DL0410 30 μM), 8.770; in series [7] (DL0410 30 μM + verapamil (50 μM)) it was 0.311; in series [7] (DL0410 100 μM), 5.556. Further, the Papp A→B at 2 h, 10 µM in [8] (MDCK-MDR1, DL0410 10 μM) was found to be 0.297 ± 0.111 ×10⁻⁶ cm/s; in [3] (pH 7.4, Caco-2, DL0410 10 μM), 0.725 ± 0.184 ×10⁻⁶ cm/s; in series [5] (pH 7.4, MDCK, DL0410 10 μM), 0.502 ± 0.103 ×10⁻⁶ cm/s. Besides, the apparent permeability from basolateral to apical (Papp B→A) at 2 h, 10 µM in [8] (MDCK-MDR1, DL0410 10 μM) was 4.43 ± 0.376 ×10⁻⁶ cm/s; in [3] (pH 7.4, Caco-2, DL0410 10 μM) it was 3.27 ± 0.251 ×10⁻⁶ cm/s; in [5] (pH 7.4, MDCK, DL0410 10 μM), 0.708 ± 0.114 ×10⁻⁶ cm/s. Besides, the Papp A→B at 2 h, 30 µM turned out to be 0.31 ± 0.021 ×10⁻⁶ cm/s in series [8] (MDCK-MDR1, DL0410 30 μM); 0.841 ± 0.098 ×10⁻⁶ cm/s in series [3] (pH 7.4, Caco-2, DL0410 30 μM); 0.74 ± 0.023 ×10⁻⁶ cm/s in series [5] (pH 7.4, MDCK, DL0410 30 μM). Moreover, the basolateral-to-apical permeability (Papp B→A) at 2 h, 30 µM came to 3.21 ± 0.061 ×10⁻⁶ cm/s in series [8] (MDCK-MDR1, DL0410 30 μM); 3.45 ± 0.619 ×10⁻⁶ cm/s in series [3] (pH 7.4, Caco-2, DL0410 30 μM); 0.871 ± 0.068 ×10⁻⁶ cm/s in series [5] (pH 7.4, MDCK, DL0410 30 μM). Moreover, the efflux ratio at 2 h, 30 µM in series [8] (MDCK-MDR1, DL0410 30 μM, read-out: ER) was determined as 10.3; in series [3] (pH 7.4, Caco-2, DL0410 30 μM, read-out: ER) it was 4.1; in series [5] (pH 7.4, MDCK, DL0410 30 μM, read-out: ER) it was 1.18. Further, the apparent permeability from apical to basolateral (Papp A→B) at 2 h, 100 µM amounted to 0.321 ± 0.039 ×10⁻⁶ cm/s in series [8] (MDCK-MDR1, DL0410 100 μM); 1.28 ± 0.017 ×10⁻⁶ cm/s in series [3] (pH 7.4, Caco-2, DL0410 100 μM); 0.95 ± 0.116 ×10⁻⁶ cm/s in [5] (pH 7.4, MDCK, DL0410 100 μM). Moreover, the Papp B→A at 2 h, 100 µM in [8] (MDCK-MDR1, DL0410 100 μM) amounted to 1.73 ± 0.105 ×10⁻⁶ cm/s; in series [3] (pH 7.4, Caco-2, DL0410 100 μM), 2.38 ± 0.138 ×10⁻⁶ cm/s; in series [5] (pH 7.4, MDCK, DL0410 100 μM) it was 0.924 ± 0.005 ×10⁻⁶ cm/s. The efflux ratio at 2 h, 100 µM in series [8] (MDCK-MDR1, DL0410 100 μM, read-out: ER) was 5.41; in series [3] (pH 7.4, Caco-2, DL0410 100 μM, read-out: ER) it was 1.86; in series [5] (pH 7.4, MDCK, DL0410 100 μM, read-out: ER), 0.973. Besides, the Papp at 2 h in [3] (pH 7.4, Caco-2, summary value in text (A→B), read-out: apparent permeability (Papp)) was roughly 1 ×10⁻⁶ cm/s. For the same compound, in series [1], the “concentration at which the activity of ATPase was saturated” value was found to be 150 µM. Also, in series [9], the “effect on Rho123 transport from BL to AP” value is recorded as “reduced Rho123 efflux”. Also, the cytotoxicity result in series [10], in series [11] and in series [12] was “no significant cytotoxic effect” throughout. In addition, the efflux ratio at 2 h in series [5] (pH 7.4, MDCK cells, summary value in text, read-out: ER) was roughly 1.
